# Source: US20100041089A1, “IMPROVED METHOD FOR DETECTING CHEMICAL […]” (priority 2006, published 2010)
# System: yeast genes (expressed mRNA)
# Test: DNA chip measurement of expressed mRNA of yeast genes after culture with a toxic chemical substance
# Type: cell-based, Saccharomyces cerevisiae S288C
# Conditions: for level of expressed mRNA in the presence of chemical substance / level in the absence of chemical substance: cultured two hours with the chemical substance; for The level of expressed mRNA in the presence of chemical substance/The level of expressed mRNA in the absence of chemical substance: cultured two hours with substance
# Method in brief: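 S. cerevisiae S288C grown at 25 °C in YPD, exposed in log phase for 2 h to a toxicant at growth-inhibiting, non-lethal concentration. Cy3/Cy5-labelled cDNA from poly(A) mRNA hybridized to whole-genome chip at 65 °C >12 h. Ratio to untreated control, ≥2 significant.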
compound,measurement,setting,value
"CCCCCCCCCCCCc1ccc(S(=O)(=O)[O-])cc1.[Na+] [(17), Sodium dodecylbenzosulfonate]",level of expressed mRNA in the presence of chemical substance / level in the absence of chemical substance,yeast gene YDR128W,0.9
same,level of expressed mRNA in the presence of chemical substance / level in the absence of chemical substance,yeast gene YDR133C,0.6
same,level of expressed mRNA in the presence of chemical substance / level in the absence of chemical substance,yeast gene YDR250C,0.9
same,level of expressed mRNA in the presence of chemical substance / level in the absence of chemical substance,yeast gene YDR278C,0.7
same,level of expressed mRNA in the presence of chemical substance / level in the absence of chemical substance,yeast gene YDR281C,1.5
same,The level of expressed mRNA in the presence of chemical substance/The level of expressed mRNA in the absence of chemical substance,yeast gene YDR330W,1.5
same,level of expressed mRNA in the presence of chemical substance / level in the absence of chemical substance,yeast gene YDR366C,1.2
same,The level of expressed mRNA in the presence of chemical substance/The level of expressed mRNA in the absence of chemical substance,yeast gene YDR411C,1.5
same,The level of expressed mRNA in the presence of chemical substance/The level of expressed mRNA in the absence of chemical substance,yeast gene YDR511W,1.3
same,The level of expressed mRNA in the presence of chemical substance/The level of expressed mRNA in the absence of chemical substance,yeast gene YDR545W,0.9
same,The level of expressed mRNA in the presence of chemical substance/The level of expressed mRNA in the absence of chemical substance,yeast gene YEL001C,0.7
same,The level of expressed mRNA in the presence of chemical substance/The level of expressed mRNA in the absence of chemical substance,yeast gene YER004W,1.4
same,The level of expressed mRNA in the presence of chemical substance/The level of expressed mRNA in the absence of chemical substance,yeast gene YER035W,2.2
same,The level of expressed mRNA in the presence of chemical substance/The level of expressed mRNA in the absence of chemical substance,yeast gene YER079W,1.0
same,The level of expressed mRNA in the presence of chemical substance/The level of expressed mRNA in the absence of chemical substance,yeast gene YER106W,0.8
same,The level of expressed mRNA in the presence of chemical substance/The level of expressed mRNA in the absence of chemical substance,yeast gene YER158C,1.6
same,The level of expressed mRNA in the presence of chemical substance/The level of expressed mRNA in the absence of chemical substance,yeast gene YER163C,1.2
same,The level of expressed mRNA in the presence of chemical substance/The level of expressed mRNA in the absence of chemical substance,yeast gene YER175C,0.9
same,The level of expressed mRNA in the presence of chemical substance/The level of expressed mRNA in the absence of chemical substance,yeast gene YFL006W,1.0
same,The level of expressed mRNA in the presence of chemical substance/The level of expressed mRNA in the absence of chemical substance,yeast gene YFL010C,1.9
same,The level of expressed mRNA in the presence of chemical substance/The level of expressed mRNA in the absence of chemical substance,yeast gene YFL024C,0.9
same,The level of expressed mRNA in the presence of chemical substance/The level of expressed mRNA in the absence of chemical substance,yeast gene YFL032W,1.7
same,level of expressed mRNA in the presence of chemical substance / level in the absence of chemical substance,yeast gene YFR026C,1.1
same,The level of expressed mRNA in the presence of chemical substance/The level of expressed mRNA in the absence of chemical substance,yeast gene YGL037C,1.3
same,The level of expressed mRNA in the presence of chemical substance/The level of expressed mRNA in the absence of chemical substance,yeast gene YGL047W,1.1
same,The level of expressed mRNA in the presence of chemical substance/The level of expressed mRNA in the absence of chemical substance,yeast gene YGL053W,2.2
same,level of expressed mRNA in the presence of chemical substance / level in the absence of chemical substance,yeast gene YGL088W,0.5
same,The level of expressed mRNA in the presence of chemical substance/The level of expressed mRNA in the absence of chemical substance,yeast gene YGL121C,2.7
same,The level of expressed mRNA in the presence of chemical substance/The level of expressed mRNA in the absence of chemical substance,yeast gene YGL199C,1.2
same,level of expressed mRNA in the presence of chemical substance / level in the absence of chemical substance,yeast gene YGR038W,1.1
same,The level of expressed mRNA in the presence of chemical substance/The level of expressed mRNA in the absence of chemical substance,yeast gene YGR101W,1.0
same,The level of expressed mRNA in the presence of chemical substance/The level of expressed mRNA in the absence of chemical substance,yeast gene YGR110W,0.9
same,The level of expressed mRNA in the presence of chemical substance/The level of expressed mRNA in the absence of chemical substance,yeast gene YGR130C,1.3
same,level of expressed mRNA in the presence of chemical substance / level in the absence of chemical substance,yeast gene YGR139W,1.0
same,The level of expressed mRNA in the presence of chemical substance/The level of expressed mRNA in the absence of chemical substance,yeast gene YGR154C,1.0
same,The level of expressed mRNA in the presence of chemical substance/The level of expressed mRNA in the absence of chemical substance,yeast gene YGR221C,1.3
same,level of expressed mRNA in the presence of chemical substance / level in the absence of chemical substance,yeast gene YGR243W,2.1
same,level of expressed mRNA in the presence of chemical substance / level in the absence of chemical substance,yeast gene YGR293C,0.8
same,level of expressed mRNA in the presence of chemical substance / level in the absence of chemical substance,yeast gene YHL006C,1.1
same,level of expressed mRNA in the presence of chemical substance / level in the absence of chemical substance,yeast gene YHR095W,0.8
same,level of expressed mRNA in the presence of chemical substance / level in the absence of chemical substance,yeast gene YHR105W,1.0
same,The level of expressed mRNA in the presence of chemical substance/The level of expressed mRNA in the absence of chemical substance,yeast gene YHR138C,5.0
same,level of expressed mRNA in the presence of chemical substance / level in the absence of chemical substance,yeast gene YHR181W,0.9
same,The level of expressed mRNA in the presence of chemical substance/The level of expressed mRNA in the absence of chemical substance,yeast gene YHR199C,1.1
same,The level of expressed mRNA in the presence of chemical substance/The level of expressed mRNA in the absence of chemical substance,yeast gene YIL023C,1.2
same,The level of expressed mRNA in the presence of chemical substance/The level of expressed mRNA in the absence of chemical substance,yeast gene YIL041W,0.8
same,The level of expressed mRNA in the presence of chemical substance/The level of expressed mRNA in the absence of chemical substance,yeast gene YIL087C,1.7
same,level of expressed mRNA in the presence of chemical substance / level in the absence of chemical substance,yeast gene YIL127C,0.7
same,level of expressed mRNA in the presence of chemical substance / level in the absence of chemical substance,yeast gene YJL017W,1.0
same,level of expressed mRNA in the presence of chemical substance / level in the absence of chemical substance,yeast gene YJL037W,1.3
same,The level of expressed mRNA in the presence of chemical substance/The level of expressed mRNA in the absence of chemical substance,yeast gene YJL057C,1.4
same,The level of expressed mRNA in the presence of chemical substance/The level of expressed mRNA in the absence of chemical substance,yeast gene YJL066C,1.4
same,The level of expressed mRNA in the presence of chemical substance/The level of expressed mRNA in the absence of chemical substance,yeast gene YJL082W,0.6
